Results: patent publication US12077503B2, “Substituted cyclic amides and their use as herbicides” (FMC CORPORATION, priority 2015, dated 2024)

Columns and labels:
Type in all cases: in vivo
[1] = tested on: velvetleaf (Abutilon theophrasti); test: Test G Post-Emergence Protocol; conditions: Abutilon theophrasti, post-emergence, 312 h, read-out: Velvetleaf damage rating; for pest or weed control at 15.625 g/ha: 15.625 g ai/ha, evaluated after 13 days (100=total damage to plant; 0=no damage to plant); for pest or weed control at 62.5 g/ha: 62.5 g ai/ha; for pest or weed control at 62.5 g/ha / pest or weed control at 250 g/ha: evaluated after 13 days, 100=total damage to plant, 0=no damage to plant; for pest or weed control at 250 g/ha: 250 g ai/ha
Procedure, shortened: (§1)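 Pot-grown seedlings, 8 days old, raised in a glasshouse at 24/16 °C day/night with 14 h light and 65% humidity, were sprayed post-emergence with test compound in acetone/water (50:50) plus 0.5% Tween 20 at 15.625, 62.5 or 250 g/ha. Damage was scored visually 13 days later on a 0–100 scale (100 = total damage).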

[2] = tested on: giant foxtail (Setaria faberi); test: Test G Post-Emergence Protocol; conditions: Setaria faberi, post-emergence, 312 h, read-out: Foxtail, Giant damage rating; for pest or weed control at 15.625 g/ha: 15.625 g ai/ha, evaluated after 13 days (100=total damage to plant; 0=no damage to plant); for pest or weed control at 62.5 g/ha: 62.5 g ai/ha
Procedure, shortened: as §1

corn (Zea mays) [3] = test: Test G Post-Emergence Protocol; conditions: Zea mays, post-emergence, 312 h, read-out: Corn damage rating; for plant injury at 15.625 g/ha: 15.625 g ai/ha, evaluated after 13 days (100=total damage to plant; 0=no damage to plant); for plant injury at 62.5 g/ha: 62.5 g ai/ha; for plant injury at 62.5 g/ha / plant injury at 250 g/ha: evaluated after 13 days, 100=total damage to plant, 0=no damage to plant; for plant injury at 250 g/ha: 250 g ai/ha
Procedure, shortened: as §1

[4] = tested on: ivy-leaved morning glory (Ipomoea hederacea); test: Test G Post-Emergence Protocol; conditions: Ipomoea, post-emergence, 312 h, read-out: Morningglory, Ivy-leaved damage rating; for pest or weed control at 15.625 g/ha: 15.625 g ai/ha, evaluated after 13 days (100=total damage to plant; 0=no damage to plant); for pest or weed control at 62.5 g/ha: 62.5 g ai/ha; for pest or weed control at 62.5 g/ha / pest or weed control at 250 g/ha: evaluated after 13 days, 100=total damage to plant, 0=no damage to plant; for pest or weed control at 250 g/ha: 250 g ai/ha
Procedure, shortened: as §1

[5] = tested on: redroot pigweed (Amaranthus retroflexus); test: Test G Post-Emergence Protocol; conditions: Amaranthus retroflexus, post-emergence, 312 h, read-out: Pigweed, Redroot damage rating; for pest or weed control at 15.625 g/ha: 15.625 g ai/ha, evaluated after 13 days (100=total damage to plant; 0=no damage to plant); for pest or weed control at 62.5 g/ha: 62.5 g ai/ha; for pest or weed control at 62.5 g/ha / pest or weed control at 250 g/ha: evaluated after 13 days, 100=total damage to plant, 0=no damage to plant; for pest or weed control at 250 g/ha: 250 g ai/ha
Procedure, shortened: as §1

[6] = tested on: barnyardgrass (Echinochloa crus-galli); test: Test G Post-Emergence Protocol; conditions: Echinochloa crus-galli, post-emergence, 312 h, read-out: Barnyardgrass damage rating; for pest or weed control at 15.625 g/ha: 15.625 g ai/ha, evaluated after 13 days (100=total damage to plant; 0=no damage to plant); for pest or weed control at 62.5 g/ha: 62.5 g ai/ha; for pest or weed control at 62.5 g/ha / pest or weed control at 250 g/ha: evaluated after 13 days, 100=total damage to plant, 0=no damage to plant; for pest or weed control at 250 g/ha: 250 g ai/ha
Procedure, shortened: as §1

[7] = tested on: velvetleaf (Abutilon theophrasti); test: Test G Pre-Emergence Protocol; conditions: Abutilon theophrasti, pre-emergence, 312 h, evaluated after 13 days; for pest or weed control at 15.625 g/ha: 15.625 g ai/ha; for pest or weed control at 15.625 g/ha / pest or weed control at 250 g/ha: read-out: Velvetleaf damage rating (100=total damage to plant; 0=no damage to plant); for pest or weed control at 62.5 g/ha: 62.5 g ai/ha, 100=total damage to plant, 0=no damage to plant, read-out: Velvetleaf damage rating; for pest or weed control at 250 g/ha: 250 g ai/ha
Procedure, shortened: (§2)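 Herbicidal effect was rated 13 days post-application on a scale where 100 equals total damage. Spraying took place the day after sowing, using 15.625, 62.5 or 250 g/ha of compound in a 50:50 acetone/water solution with 0.5% Tween 20.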

[8] = tested on: giant foxtail (Setaria faberi); test: Test G Pre-Emergence Protocol; conditions: Setaria faberi, pre-emergence, 312 h, evaluated after 13 days; for pest or weed control at 15.625 g/ha: 15.625 g ai/ha; for pest or weed control at 15.625 g/ha / pest or weed control at 250 g/ha: read-out: Foxtail, Giant damage rating (100=total damage to plant; 0=no damage to plant); for pest or weed control at 62.5 g/ha: 62.5 g ai/ha, 100=total damage to plant, 0=no damage to plant, read-out: Foxtail, Giant damage rating; for pest or weed control at 250 g/ha: 250 g ai/ha
Procedure, shortened: as §2

corn (Zea mays) [9] = test: Test G Pre-Emergence Protocol; conditions: Zea mays, pre-emergence, 312 h, evaluated after 13 days; for plant injury at 15.625 g/ha: 15.625 g ai/ha; for plant injury at 15.625 g/ha / plant injury at 250 g/ha: read-out: Corn damage rating (100=total damage to plant; 0=no damage to plant); for plant injury at 62.5 g/ha: 62.5 g ai/ha, 100=total damage to plant, 0=no damage to plant, read-out: Corn damage rating; for plant injury at 250 g/ha: 250 g ai/ha
Procedure, shortened: as §2

[10] = tested on: ivy-leaved morning glory (Ipomoea hederacea); test: Test G Pre-Emergence Protocol; conditions: Ipomoea, pre-emergence, 312 h, evaluated after 13 days; for pest or weed control at 15.625 g/ha: 15.625 g ai/ha; for pest or weed control at 15.625 g/ha / pest or weed control at 250 g/ha: read-out: Morningglory, Ivy-leaved damage rating (100=total damage to plant; 0=no damage to plant); for pest or weed control at 62.5 g/ha: 62.5 g ai/ha, 100=total damage to plant, 0=no damage to plant, read-out: Morningglory, Ivy-leaved damage rating; for pest or weed control at 250 g/ha: 250 g ai/ha
Procedure, shortened: as §2

[11] = tested on: redroot pigweed (Amaranthus retroflexus); test: Test G Pre-Emergence Protocol; conditions: Amaranthus retroflexus, pre-emergence, 312 h, evaluated after 13 days; for pest or weed control at 15.625 g/ha: 15.625 g ai/ha; for pest or weed control at 15.625 g/ha / pest or weed control at 250 g/ha: read-out: Pigweed, Redroot damage rating (100=total damage to plant; 0=no damage to plant); for pest or weed control at 62.5 g/ha: 62.5 g ai/ha, 100=total damage to plant, 0=no damage to plant, read-out: Pigweed, Redroot damage rating; for pest or weed control at 250 g/ha: 250 g ai/ha
Procedure, shortened: as §2

[12] = tested on: barnyardgrass (Echinochloa crus-galli); test: Test G Pre-Emergence Protocol; conditions: Echinochloa crus-galli, pre-emergence, 312 h, evaluated after 13 days; for pest or weed control at 15.625 g/ha: 15.625 g ai/ha; for pest or weed control at 15.625 g/ha / pest or weed control at 250 g/ha: read-out: Barnyardgrass damage rating (100=total damage to plant; 0=no damage to plant); for pest or weed control at 62.5 g/ha: 62.5 g ai/ha, 100=total damage to plant, 0=no damage to plant, read-out: Barnyardgrass damage rating; for pest or weed control at 250 g/ha: 250 g ai/ha
Procedure, shortened: as §2

[13] = evaluated after 13 days, 100=total damage to plant, 0=no damage to plant

| SMILES | pest or weed control at 15.625 g/ha [1] [%] | pest or weed control at 62.5 g/ha [1] [%] | pest or weed control at 250 g/ha [1] [%] | pest or weed control at 15.625 g/ha [2] [%] | pest or weed control at 62.5 g/ha [2, 13] [%] | plant injury at 15.625 g/ha (corn (Zea mays) [3]) [%] | plant injury at 62.5 g/ha (corn (Zea mays) [3]) [%] | plant injury at 250 g/ha (corn (Zea mays) [3]) [%] | pest or weed control at 15.625 g/ha [4] [%] | pest or weed control at 62.5 g/ha [4] [%] | pest or weed control at 250 g/ha [4] [%] | pest or weed control at 15.625 g/ha [5] [%] | pest or weed control at 62.5 g/ha [5] [%] | pest or weed control at 250 g/ha [5] [%] | pest or weed control at 15.625 g/ha [6] [%] | pest or weed control at 62.5 g/ha [6] [%] | pest or weed control at 250 g/ha [6] [%] | pest or weed control at 15.625 g/ha [7] [%] | pest or weed control at 62.5 g/ha [7] [%] | pest or weed control at 250 g/ha [7] [%] | further results |
| --- | --- | --- | --- | --- | --- | --- | --- | --- | --- | --- | --- | --- | --- | --- | --- | --- | --- | --- | --- | --- | --- |
| CN1CC(c2cc(C#N)cc(C(F)(F)F)c2)C(C(=O)Nc2cccc(F)c2F)C1=O (centres unmarked) [Compound 1684] | 0 | 0 | 0 | 0 | 0 | 0 | 0 | 0 | 0 | 0 | 0 | 0 | 0 | 0 | 0 | 0 | 0 | 0 | 0 | 0 | pest or weed control at 15.625 g/ha [8]: 0%; pest or weed control at 62.5 g/ha [8]: 0%; pest or weed control at 250 g/ha [8]: 0%; plant injury at 15.625 g/ha (corn (Zea mays) [9]): 0%; plant injury at 62.5 g/ha (corn (Zea mays) [9]): 0%; plant injury at 250 g/ha (corn (Zea mays) [9]): 10%; pest or weed control at 15.625 g/ha [10]: 0%; pest or weed control at 62.5 g/ha [10]: 0%; pest or weed control at 250 g/ha [10]: 0%; pest or weed control at 15.625 g/ha [11]: 0%; pest or weed control at 62.5 g/ha [11]: 0%; pest or weed control at 250 g/ha [11]: 10%; pest or weed control at 15.625 g/ha [12]: 0%; pest or weed control at 62.5 g/ha [12]: 0%; pest or weed control at 250 g/ha [12]: 0% |
| CCOc1cc(C2CN(C)C(=O)C2C(=O)Nc2cccc(F)c2F)ccc1Cl (centres unmarked) [Compound 1686] | 30 | 20 | 40 | 60 | 70 | 0 | 10 | 60 | 20 | 20 | 70 | 30 | 20 | 40 | 30 | 70 | 80 | 0 | 0 | 40 | pest or weed control at 250 g/ha ([2]; 250 g ai/ha, evaluated after 13 days, 100=total damage to plant, 0=no damage to plant): 80%; pest or weed control at 15.625 g/ha [8]: 60%; pest or weed control at 62.5 g/ha [8]: 70%; pest or weed control at 250 g/ha [8]: 90%; plant injury at 15.625 g/ha (corn (Zea mays) [9]): 10%; plant injury at 62.5 g/ha (corn (Zea mays) [9]): 20%; plant injury at 250 g/ha (corn (Zea mays) [9]): 50%; pest or weed control at 15.625 g/ha [10]: 0%; pest or weed control at 62.5 g/ha [10]: 20%; pest or weed control at 250 g/ha [10]: 60%; pest or weed control at 15.625 g/ha [11]: 0%; pest or weed control at 62.5 g/ha [11]: 0%; pest or weed control at 250 g/ha [11]: 60%; pest or weed control at 15.625 g/ha [12]: 40%; pest or weed control at 62.5 g/ha [12]: 70%; pest or weed control at 250 g/ha [12]: 70% |
